From patent US12274726B2, “Enteric aerobization therapy” (LPOXY THERAPEUTICS, INC., priority 2021, dated 2025)

Tests used:
[1] = up to maximum bolus tested, 200 microliters every 6 hours (8 mL/kg per bolus; 32 mL/kg/day)
Description: In a separate experiment using the above conditions the tolerance of bolus injection of 100% oxygen gas was tested.

[2] = system: Clostridioides difficile ATCC 43255; conditions: for cure rate: mouse CDI model, 14 days follow-up; for survival: treatment study day 0 to 4, followed for 14 days after inoculum, 10 mice per group
Description: Because of the more humanlike characteristics for mouse CDI model, it was chosen to evaluate enteric aerobization.
Administration of enteric aerobization therapies presented several challenges with the mouse model. Administration of experimental compounds in rodents is normally performed via gastric gavage using a solution of the test article. However, this could not be accomplished with enteric aerobization therapy because dissolving the mixture prior to administration would result in premature loss of oxygen effervescence before entering the intestine. Further, there is uncertainty that rodents reliably pass enteric coated capsules or tablets from the stomach to the intestine. […] Finally, the small capsule or tablet sizes required for rodent administration severely limits dosages.
Thirty C57BL/6 female mice (18-22 g) fitted with duodenal catheters externalized and fitted with access button ports were purchased from Charles River Laboratories and singly housed in a temperature and humidity-controlled room with a 12-hour light cycle. The mice were divided into 3 groups of 10.
The mice were pretreated with an antibiotic cocktail in their drinking water for 8 consecutive days. This antibiotic cocktail was composed of 1% glucose, 500 mcg/mL kanamycin, 44 mcg/mL gentamicin, 1062.5 units per milliliter colistin, 269 mcg/mL metronidazole, 156 mcg/mL ciprofloxacin, 100 mcg/mL ampicillin, and 56 mcg/mL vancomycin. The antibiotic cocktail and drinking water were replaced every 2 to 3 days. Five days prior to infection the antibiotic water was removed and normal drinking water was provided to the animals. Three days prior to infection the animals received a single dose of clindamycin 10 mg per kilogram via oral administration in a volume of 10 mL per kilogram.
On study Day 0 mice were inoculated with the bacterial suspension of 5×10^5 CFU Clostridioides difficile ATCC 43255 via oral gavage. Eight hours after inoculation administration of vehicle, antibiotic control, and test article was initiated according to the following. The vehicle a.k.a. infection control group of 10 mice received 80 μL per hour 100% pure nitrogen gas via duodenal catheter. The infection control group of 10 mice received 50 mg/kg vancomycin via oral gavage once daily. […] Administration was continued from study day 0 to study day 4, a total of 5 days. The mice were followed for 14 days after inoculum recording daily weights and clinical observations. Animals that appeared severely moribund were euthanized. At the end of the study all animals were humanely euthanized.

Row | SMILES | adverse effects of bolus injection [1] | clinical severity (total clinical score) compared to infection control group ([2]; FIG. 9) | animals showing clinical signs of infection/recurrence in the 2nd week after inoculation, after treatment ([2]; days 8-14) | adverse effects due to gas infusion ([2]; efficacy experiments, 3.2 mL/kg/hr, 76.8 mL/kg/day) | cure rate [2] | survival [2]
1 | O=O [EAT, oxygen] | No adverse effects were observed | mildly ill | no recurrent infections | no adverse effects | 100% | 100%
2 | CN[C@H](CC(C)C)C(=O)N[C@H]1C(=O)N[C@@H](CC(N)=O)C(=O)N[C@H]2C(=O)N[C@H]3C(=O)N[C@H](C(=O)N[C@H](C(=O)O)c4cc(O)cc(O)c4-c4cc3ccc4O)[C@H](O)c3ccc(c(Cl)c3)Oc3cc2cc(c3O[C@@H]2O[C@H](CO)[C@@H](O)[C@H](O)[C@H]2O[C@H]2C[C@](C)(N)[C@H](O)[C@H](C)O2)Oc2ccc(cc2Cl)[C@H]1O [vancomycin, reference compound] | – | – | – | – | 30% | 100%
